The target in the test is Dual specificity tyrosine-phosphorylation-regulated kinase 1A (Homo sapiens, UniProt Q13627). The test can be described thus: DYRK1A kinase assay. The method, then:
The mixture was allowed to incubate with the representative compounds for one hour at room temperature. All reactions were performed in duplicate. Unphosphorylated ( 0% Control ) and phosphorylated ( 100% control ) forms of Ser/Thr 18 served as control reactions. Additionally, an 11-point dose-response curve of Staurosporine (luM top) was run to serve as a positive compound control. After incubation, Development Reagent A was diluted in Development Buffer then added to the reaction and allowed to further incubate for one hour at room temperature.
As a reminder, the EC50 is the concentration that produces a half-maximal response. `COc1nc(N[C@H]2C[C@@](C)(O)C2)nn2ccc(-c3ccc4nccn4c3)c12` [US20240002391, Compound 43]: the response was half-maximal at 1.3 nM (EC50).
For `COc1nc(N[C@H]2C[C@](C)(O)C2)nn2ccc(-c3ccc4nccn4c3)c12` [US20240002391, Compound 44] the value was 3.2 nM; for `COc1nc(N[C@H]2C[C@@](C)(N)C2)nn2ccc(-c3ccc4ncnn4c3)c12` [US20240002391, Compound 189], 18.8 nM.
For `COc1nc(N[C@H]2C[C@@](C)(NC(=O)C3(C#N)CC3)C2)nn2ccc(-c3ccc4nnn(C)c4c3)c12` [US20240002391, Compound 625] the value was 0.9 nM; for `COc1nc(N[C@H]2CC[C@](C)(O)CC2)nn2cc(F)c(-c3ccc4nnn(C)c4c3)c12` [US20240002391, Compound 629], 2.4 nM.
`Cn1nnc2ccc(-c3ccn4nc(N[C@H]5CC[C@](C)(O)CC5)nc(OC5COC5)c34)cc21` [US20240002391, Compound 631] registered an EC50 of 24.5 nM.
For `CCn1nnc2ccc(-c3ccn4nc(N[C@H]5CC[C@](C)(O)CC5)nc(OC)c34)cc21` [US20240002391, Compound 639] the value was 1.3 nM; for `COc1nc(N[C@H]2C[C@@](C)(NC(C)=O)C2)nn2ccc(-c3ccc4nnn(CCF)c4c3)c12` [US20240002391, Compound 653], 1.3 nM.
For `COc1nc(N[C@H]2CC[C@@](C)(O)CC2)nn2ccc(-c3ccc4nnn(CCF)c4c3)c12` [US20240002391, Compound 658] the value was 4.5 nM.
`COc1nc(N[C@H]2CC[C@](C)(O)CC2)nn2ccc(-c3ccc4nnn(CCF)c4c3)c12` [US20240002391, Compound 659] had a concentration giving a half-maximal response (EC50) of 0.9 nM.
As for `COc1nc(N[C@H]2C[C@]3(CCN3CC(F)F)C2)nn2ccc(-c3ccc4nccnc4c3)c12` [US20240002391, Compound 1099], the EC50 came out at 0.7 nM.

The values above are taken from BindingDB's records for patent US20240002391 (Biosplice Therapeutics, 2024).
